According to US20140341939A1 (NATIONAL UNIVERSITY CORPORATION KOCHI UNIVERSITY, priority 2011, published 2014):
Where no end group is shown, it is not given here. [ ]: non-standard residue; d: D form. The star is where a group is joined. Biotin = O=C1N[C@H]2[C@H](CS[C@H]2CCCCC(=O)*)N1; βAla = NCCC(=O)O

Key:
[1] = tested on: peptidase activity in the serum; assay: Effect of peptidase inhibitor on OVII peptide digestion by mouse serum; type: biochemical; conditions: inhibitor-containing buffer (FIGS. 22-24)
Text: Given the above-mentioned Examples, the inventor examined the effect of peptidase inhibitor on the peptide digestion to identify the peptidase in the serum.

ACE = molecular target: T1, ACE (Mus musculus, UniProt P09470); assay: ACE activity of antigen presenting cell (CH1-IA^d cells, Abz-FRK(Dnp)P-OH substrate); type: cell-based; conditions: 2.5 mM inhibitor, preincubated 37° C. 20 min; 10 μM Abz-FRK(Dnp)P-OH (FIG. 25)
T1 construct: endogenous in cells; host or cells: CH1-IA^d cells (living, in PBS)
T1 sequence (P09470 35-1312): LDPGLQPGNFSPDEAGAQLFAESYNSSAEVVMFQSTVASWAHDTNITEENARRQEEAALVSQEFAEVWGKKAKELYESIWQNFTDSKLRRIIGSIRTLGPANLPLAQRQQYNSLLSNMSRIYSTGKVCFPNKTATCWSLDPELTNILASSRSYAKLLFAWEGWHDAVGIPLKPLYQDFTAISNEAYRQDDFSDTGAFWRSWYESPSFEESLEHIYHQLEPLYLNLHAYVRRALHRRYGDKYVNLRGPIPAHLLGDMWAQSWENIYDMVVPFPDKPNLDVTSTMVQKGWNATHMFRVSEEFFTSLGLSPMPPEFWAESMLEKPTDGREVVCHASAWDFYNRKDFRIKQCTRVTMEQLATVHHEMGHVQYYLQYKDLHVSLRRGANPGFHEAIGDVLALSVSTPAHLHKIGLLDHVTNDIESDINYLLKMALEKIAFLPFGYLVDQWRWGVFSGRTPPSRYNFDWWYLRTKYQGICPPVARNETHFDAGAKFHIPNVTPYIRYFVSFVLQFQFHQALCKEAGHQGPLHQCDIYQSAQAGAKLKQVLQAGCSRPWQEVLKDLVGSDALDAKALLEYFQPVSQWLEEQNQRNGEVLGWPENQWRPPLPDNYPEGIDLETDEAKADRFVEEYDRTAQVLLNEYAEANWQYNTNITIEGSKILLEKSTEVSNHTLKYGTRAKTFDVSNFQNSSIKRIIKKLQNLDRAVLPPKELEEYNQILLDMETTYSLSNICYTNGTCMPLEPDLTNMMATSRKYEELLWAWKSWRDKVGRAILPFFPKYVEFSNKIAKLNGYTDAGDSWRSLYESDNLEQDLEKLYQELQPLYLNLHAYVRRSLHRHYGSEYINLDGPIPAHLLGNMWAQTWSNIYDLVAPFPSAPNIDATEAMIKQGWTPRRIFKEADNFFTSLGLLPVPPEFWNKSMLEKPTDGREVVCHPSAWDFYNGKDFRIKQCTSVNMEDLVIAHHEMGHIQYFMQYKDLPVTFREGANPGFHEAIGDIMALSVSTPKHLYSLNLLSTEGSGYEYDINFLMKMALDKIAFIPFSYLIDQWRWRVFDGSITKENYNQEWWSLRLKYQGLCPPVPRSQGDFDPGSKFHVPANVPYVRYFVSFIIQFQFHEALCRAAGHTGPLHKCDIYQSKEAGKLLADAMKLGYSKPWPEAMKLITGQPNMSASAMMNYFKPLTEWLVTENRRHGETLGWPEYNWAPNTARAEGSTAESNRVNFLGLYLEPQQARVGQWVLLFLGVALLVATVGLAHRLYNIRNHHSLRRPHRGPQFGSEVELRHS
Description: The ACE activity of the cell surface was measured by a modified method of the method described in Sabatini, R. et al., Anal Biochem 363: 255-262, 2007.
10 μM Abz-FRK(Dnp)P-OH (Sigma, St. Louis) was added and the cells were incubated at 37° C. for a given time. The reaction was quenched by placing them on ice. After centrifugation, fluorescence in the supernatant was measured at excitation wavelength of 320 nm and emission wavelength of 420 nm (FIG. 25).

serum peptidase [2] = tested on: serum peptidase
Description: (§1) Peptide was digested in TBS containing 10% fresh mouse serum or fresh human serum. After incubation at 37° C. for a given time, 1% trifluoro acid was added to remove various serum proteins by precipitation. After short centrifugation, the soluble fraction was analyzed by reversed-phase HPLC using a C18 analysis column. To normalize variation in the total amount of the peptide loaded for each HPLC, the peak of non-protein components contained in the serum, which is absorbed at the wavelength of 220 nm, was used as an internal control. The peak area of undigested peptides was quantitatively monitored by Chromatopac C-R8A (Shimadzu Corp., Kyoto, Japan), and the amount of the remaining peptide was calculated.
(§2) Therefore, the inventor examined the digestion resistance of peptide in vitro in a 10% fresh mouse serum. The amount of a remaining undigested peptide was quantified by HPLC.

in vitro = conditions: mouse, serum
Description: as §1, §2

I-A^d molecule = molecular target: T2, I-A^d molecule (Mus musculus, UniProt P01921+P04228); assay: Peptide-binding assay on CH1-IA^d cells (FITC-streptavidin, flow cytometry); conditions: CH1-IA^d cells (FIG. 17)
T2 construct: expressed in transfected cells; host or cells: CH1 cells, retroviral transduction with pMX (I-Aβ-IRES-I-Aα)
T2 sequence (P04228 24-256): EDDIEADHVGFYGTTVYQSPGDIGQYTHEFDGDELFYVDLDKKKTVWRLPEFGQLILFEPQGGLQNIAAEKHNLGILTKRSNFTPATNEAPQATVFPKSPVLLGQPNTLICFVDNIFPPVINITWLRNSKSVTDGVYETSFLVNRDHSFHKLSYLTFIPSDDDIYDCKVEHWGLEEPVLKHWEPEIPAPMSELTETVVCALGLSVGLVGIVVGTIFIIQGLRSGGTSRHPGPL
T2 sequence (P01921 28-265): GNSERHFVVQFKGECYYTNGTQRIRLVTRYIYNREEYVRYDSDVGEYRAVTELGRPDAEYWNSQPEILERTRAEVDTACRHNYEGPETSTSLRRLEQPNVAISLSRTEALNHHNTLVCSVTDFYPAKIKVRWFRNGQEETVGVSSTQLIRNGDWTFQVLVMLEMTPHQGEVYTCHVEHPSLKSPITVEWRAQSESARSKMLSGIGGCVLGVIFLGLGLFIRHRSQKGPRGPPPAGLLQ
Description: The CH1-IA^d or CH1-IA^b cells were suspended in 2% BSA IMDM to 2×10^6 cells/ml. The cell suspension (100 μl) was added to peptide (100 μl) continuously diluted with serum-free IMDM. After incubating at 37° C. for 2 hr, 6 hr or 16 hr, the cells were washed and stained with FITC-streptavidin. The amount of peptide bound to the cells was measured by flow cytometry.

[3] = Degradation of peptide in 10% fresh mouse serum (HPLC of remaining peptide); conditions: mouse, 10% fresh mouse serum
Description: as §1, §2

serum peptidase [4] = assay: as above; conditions: 10% fresh mouse serum, up to 16 hr (FIG. 21)
Description: as §1, §2

HLA-DR molecule = molecular target: T3, HLA-DR molecule (Homo sapiens, UniProt P01903+P01911, A100R/A169T/D86S/F76Y/I96L/K127E/L162R/M171V/N62H/P40V/Q125Y/R42H/S133A/S149N/S66Y/V115G/V209L/W38E); assay: Binding of biotinylated W332 peptide to CH1-DR4 cell; conditions: cultured 5 hr, FITC-streptavidin, flow cytometry (FIG. 29A)
T3 construct: expressed in transfected cells; host or cells: CH1-DR4 (CH1-DRB1*04:05) cells

HLA-DR4 molecule = molecular target: T4, HLA-DR4 molecule (Homo sapiens, UniProt P01903+P01911, A100R/A169T/D86S/F76Y/I96L/K127E/L162R/M171V/N62H/P40V/Q125Y/R42H/S133A/S149N/S66Y/V115G/V209L/W38E); assay: Peptide binding to HLA-DR4 molecule on CH1-DR4 cells with p-chlorophenol; conditions: PCP added, 37° C. 4 hr, FITC-streptavidin (FIG. 31)
T4 construct: expressed in transfected cells; host or cells: CH1-DRB1*04:05 (CH1-DR4) cells
Description: CH1-DRB1*04:05 cells (CH1-DR4 cells) were suspended in 20% FCS IMDM ([…]) at 2×10^6/ml, so that 50 μl could provide 1×10^5 cells/well in a 96 well U plate. Then, 20 μM bTR174 (PSK^bio[…]^bioPβA: SEQ ID NO: 41) (biotinylation index peptide) was added at 100 μl per well, and IMDM containing 8 mM PCP was further added at 50 μl per well, and finally, CH1-DR4 cells were added at 50 μl (1×10^5/well) and the mixture was incubated at 37° C. for 4 hr. Free peptide was removed by centrifugation, the cells were stained with FITC-streptavidin, and measured by flow cytometer. […] By adding a competitive peptide, which is generated by adding a peptidase resistant sequence to the terminal of an unlabeled peptide, to this experiment system, the binding activity of the unlabeled peptide can be quantitatively measured.

Th cell = assay: In vivo immunization using modified molecule of WA36 (IFN-γ positive Th cells); set-up: species or system mouse; conditions: IFN-γ positive Th cells (FIG. 27)

c1cnc2c(c1)ccc1cccnc12 [o-phenanthrolin]
inhibition of OVII peptide digestion / peptidase activity in serum [1]: almost completely inhibited | inhibition of peptide degrading enzyme activity associated with living cells (ACE): inhibited

ISQAVHAAHAEINEA [OVII]
undigested peptide left (serum peptidase [2]): undigested peptide was not left | metabolised at 2 h (in vitro): 40%

ISQAVHAAHAEINEAR [OVII+]
binding activity to I-A^d molecule, effect of added Arg (I-A^d molecule): did not affect the binding activity to I-A^d molecule

PSISQAVHAAHAEINEA [POVII]
remaining at 16 h [3]: ~70% | digestion resistance to serum peptidases (in words) (serum peptidase [4]): very strong enzyme resistance

PSK^bioKRYFKLSHLQMHSRKHK^bioPβA (PSK(Biotin)KRYFKLSHLQMHSRKHK(Biotin)P[βAla]) [PbW332bPβ]
binding to cell that expresses HLA-DR molecule (HLA-DR molecule): bind to CH1-DR4 cell

PSK^bioREFKLSKVWRDQK^bioPβA (PSK(Biotin)REFKLSKVWRDQK(Biotin)P[βAla]) [bTR174, biotinylation index peptide]
binding of biotin-labeled peptide to HLA-DR4 molecule (HLA-DR4 molecule): replaced a peptide endogenously bound to an HLA-DR4 molecule, in a PCP concentration dependent manner

PVLDFAPPGASAYGS [WA36, WT1 antigen-derived polypeptide]
induction of Th cell to the tumor antigen in in vivo immunization (Th cell): induction of Th cell was extremely difficult
